Values of other authors as cited in patent publication US20080242648A1, “COMBINATION OF ERa+ LIGANDS AND HISTONE D[…] THE TREATMENT OF CANCER” (Syndax Pharmaceuticals, Inc., a California Corporation, priority 2006, published 2008).

Test system: breast cancer
Details: second line setting, post-menopausal women

**Q.** With “7-alpha-[9-(4,4,5,5,5-penta fluoropentylsulphinyl)nonyl]estra-1,3,5-(10)-triene-3,17-beta-diol [Faslodex]” as the substance, how does the response rate read?
**A.** The response rate was 17-20%.

**Q.** And the time to progression?
**A.** The time to progression was 5.4-5.5 month.
